The conditions of data set [1]: following intravenous injection in humans; cited from earlier work.
Data set [2] concerns Growth Hormone secretion. The experiment in a line: Growth Hormone secretion in female mice after subcutaneous GRF analog. The data set is classed as in vivo. The following applies: female CD-1 mice; 10 μg/mouse subcutaneous; plasma 10 minutes after injection. The method in brief: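 Female CD-1 mice (20–25 g) got a subcutaneous dose of 10 μg/mouse GRF analog in 20 mM sodium acetate + 5% mannitol, pH 5. Plasma was taken by cardiac puncture 10 min after dosing into K3EDTA. GH was measured by rat/mouse GH ELISA on 20-fold diluted plasma.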

The test system of data set [3] is Growth Hormone secretion. Description: Growth Hormone secretion in female rats after subcutaneous GRF analog. The data set is classed as in vivo. The following applies: female Sprague-Dawley rats; 10 μg/rat subcutaneous; plasma 0-60 minutes. The method in brief: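 Female Sprague-Dawley rats (250–300 g), isoflurane-anaesthetised with carotid cannula, got GRF analog 10 μg/rat s.c. in 20 mM AcONa + 5% mannitol, pH 5. Blood was drawn at 0, 10, 20, 30, 45 and 60 min (4–8 rats per group per time point). Plasma GH was measured by rat/mouse GH ELISA on 20-fold diluted samples.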

A further data set concerns the target T1, human GRF receptor (Homo sapiens, UniProt Q02643).
T1 construct: expressed in transfected cells; host or cells: baby hamster kidney (BHK) cells, stably transfected
T1 sequence (Q02643 23-423): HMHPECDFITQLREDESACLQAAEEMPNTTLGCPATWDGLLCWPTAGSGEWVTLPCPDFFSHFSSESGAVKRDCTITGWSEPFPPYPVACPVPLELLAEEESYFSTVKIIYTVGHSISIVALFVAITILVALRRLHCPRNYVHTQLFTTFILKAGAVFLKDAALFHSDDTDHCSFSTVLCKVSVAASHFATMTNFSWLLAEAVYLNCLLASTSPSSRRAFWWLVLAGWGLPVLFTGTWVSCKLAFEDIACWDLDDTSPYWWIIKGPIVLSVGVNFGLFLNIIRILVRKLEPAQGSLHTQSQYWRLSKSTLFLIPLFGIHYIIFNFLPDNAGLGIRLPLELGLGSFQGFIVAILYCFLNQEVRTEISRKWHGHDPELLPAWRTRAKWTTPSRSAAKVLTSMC
Description: Alkaline phosphatase (AP) assay, GHRHr agonist activity. The data set is classed as cell-based. The following applies: BHK cells stably expressing human GRF receptor and alkaline phosphatase reporter gene; 24 hrs stimulation; read-out: EC50 (nM) as assessed by alkaline phosphatase (AP) induction. The procedure: The activity of representative GRF peptides was tested on baby hamster kidney (BHK) cells stably transfected to express the human GRF receptor and an alkaline phosphatase reporter gene. Cells were cultured 24 hours before stimulation, in 96-well plates, at a concentration of 0.5×10^5 cells/well. Before stimulation, cells were washed twice with DPBS and incubated 10-30 min in assay buffer (DMEM without phenol red supplemented with 20 mM HEPES and 1% heat inactivated fetal bovine serum (FBS). The dose response curve of the GRF peptides was done for 24 hrs with concentrations of peptides from 10^−5 M to 10^−11 M. Supernatant was collected and analysis of alkaline phosphatase levels was performed using the Alkaline Phosphatase detection kit from Applied Biosystems.
The in vitro activity of representative GRF analogs was tested on baby hamster kidney (BHK) cells expressing human GHRHr.
On the technique in general: A reporter such as luciferase makes a cellular process visible.

These results are taken from patent US8361964B2, “Growth hormone releasing factor (GRF) analogs and uses thereof” (Theratechnologies Inc., priority 2011, dated 2013).

Where a SMILES comes first, the peptide text is derived from it.

In the case of “Tyr-Ala-Asp-Ala-Ile-Phe-Thr-Asn-Ser-Tyr-Arg-Lys-Val-Leu-Gly-Gln-Leu-Ser-Ala-Arg-Lys-Leu-Leu-Gln-Asp-Ile-Met-Ser-Arg [hGRF(1-29)]”, the half-life entry in data set [1] is “approximately 12 min”.
Regarding `CC/C=C/CC(=O)N[C@@H](Cc1ccc(O)cc1)C(=O)N[C@@H](C)C(=O)N[C@@H](CC(=O)O)C(=O)N[C@@H](C)C(=O)N[C@H](C(=O)N[C@@H](Cc1ccccc1)C(=O)N[C@H](C(=O)N[C@@H](CC(=O)O)C(=O)N[C@@H](CO)C(=O)N[C@@H](Cc1ccc(O)cc1)C(=O)N[C@@H](CCCNC(=N)N)C(=O)N[C@@H](CCCCN)C(=O)N[C@H](C(=O)N[C@@H](CC(C)C)C(=O)N[C@@H](C)C(=O)N[C@@H](CCC(N)=O)C(=O)N[C@@H](CC(C)C)C(=O)N[C@@H](CCCCN)C(=O)N[C@@H](C)C(=O)N[C@@H](CCCNC(=N)N)C(=O)N[C@@H](CCC(N)=O)C(=O)N[C@@H](CC(=O)O)C(=O)N[C@@H](CC(C)C)C(=O)N[C@@H](CC(C)C)C(=O)N[C@@H](C)C(=O)N[C@@H](CCCNC(=N)N)C(=O)N[C@@H](C)C(=O)N[C@@H](C)C(=O)N[C@@H](CCCNC(=N)N)C(=O)N[C@@H](C)C(=O)N[C@@H](C)C(=O)N[C@@H](CCCNC(=N)N)C(N)=O)C(C)C)[C@@H](C)O)[C@@H](C)CC` [SEQ ID NO: 32, Trans-3-hexenoyl-YADAIFTDSYRKVLAQLKARQDLLARAARAAR-NH2] (HELM PEPTIDE1{[CC/C=C/CC(=O)[*:2]].Y.A.D.A.I.F.T.D.S.Y.R.K.V.L.A.Q.L.K.A.R.Q.D.L.L.A.R.A.A.R.A.A.R.[am]}$$$$V2.0), the “GH levels 10 min” value with Growth Hormone secretion [2] turned out to be 401.6 ng/mL. Also, in the data set with Growth Hormone secretion [3], the “Mean AUC (GH Area Under the curve, GH concentration over time)” value stood at 10500 and the “Mean Cmax (ng/ml) of Growth Hormone secretion” value is 514.8 ng/mL. Moreover, the EC50 – broadly, the midpoint of the concentration-response curve – at human GRF receptor is 0.11 nM.
In the same order, the values of `CC[C@H](C)[C@H](NC(=O)[C@H](C)NC(=O)[C@H](CC(=O)O)NC(=O)[C@@H](C)NC(=O)[C@@H](N)Cc1ccc(O)cc1)C(=O)N[C@@H](Cc1ccccc1)C(=O)N[C@H](C(=O)N[C@@H](CC(=O)O)C(=O)N[C@@H](CO)C(=O)N[C@@H](Cc1ccc(O)cc1)C(=O)N[C@@H](CCCNC(=N)N)C(=O)N[C@@H](CCCCN)C(=O)N[C@H](C(=O)N[C@@H](CC(C)C)C(=O)N[C@@H](C)C(=O)N[C@@H](CCC(N)=O)C(=O)N[C@@H](CC(C)C)C(=O)N[C@@H](CCCCN)C(=O)N[C@@H](C)C(=O)N[C@@H](CCCNC(=N)N)C(=O)N[C@@H](CCC(N)=O)C(=O)N[C@@H](CC(=O)O)C(=O)N[C@H](C(=O)N[C@@H](CC(C)C)C(=O)N[C@@H](C)C(=O)N[C@@H](CCCNC(=N)N)C(=O)N[C@@H](C)C(=O)N[C@@H](C)C(=O)N[C@@H](CCCNC(=N)N)C(=O)N[C@@H](C)C(=O)N[C@@H](C)C(=O)N[C@@H](CCCNC(=N)N)C(N)=O)[C@@H](C)CC)C(C)C)[C@@H](C)O` [SEQ ID NO: 28, Y-a-DAIFTDSYRKVLAQLKARQDILARAARAAR-NH2] (HELM PEPTIDE1{Y.[dA].D.A.I.F.T.D.S.Y.R.K.V.L.A.Q.L.K.A.R.Q.D.I.L.A.R.A.A.R.A.A.R.[am]}$$$$V2.0) are 449.7 ng/mL, 17633, 806.2 ng/mL and 0.11 nM.
The like results for “Ac-YADAIFTDSYRKVLAQLSARKLLQDILSR-NH2 [SEQ ID NO: 43, Ac-YADAIFTDSYRKVLAQLSARKLLQDILSR-NH2, reference compound]” were, in that order, 277 ng/mL, 2128, 83.6 ng/mL and 0.25 nM.
